Results on two molecules are retold here after patent publication US10085940B2, “Liposomes co-encapsulating a bisphosphonate and an amphipathic agent” (YISSUM RESEARCH DEVELOPMENT COMPANY OF THE HEBREW …, priority 2011, dated 2018).

A word on the IC50: it is the concentration that gives 50% inhibition.

Series [1] concerns N87 human gastric carcinoma cells. The experiment in a line: In vitro cytotoxicity, 72 hr continuous exposure, methylene blue staining. The settings on record: N-87. It counts as cell-based. As for the experimental part: (§1) Cytotoxicity was assayed using varying concentrations of ALD (0.1-200 μM) under standard 72 hr, continuous exposure, in 96-multiwell assays. Growth rate was assessed colorimetrically based on methylene blue staining and data was obtained with an automatic plate reader and IC50 values were determined

Series [2] deals with KB-hiFR. The series is described as above. Format: cell-based, human. The conditions noted are these: for IC50: KB-hiFR, 72 hr continuous exposure. As for the experimental part: as §1
The subject of series [3] is IGROV-1 ovarian carcinoma. The series is described as above. It counts as cell-based, human. The procedure:
as §1
Cytotoxicity was assayed as described above in Example 1.

Series [4] relates to KG-1 cells. The experiment in a line: PKH26/AnnexinV flow cytometry of KG-1 cells co-cultured with γδ T-cells. Format: cell-based, human. The conditions noted are these: 20 μg/mL (Doxil 13.3 μg/mL) 24 h, then 4 h with γδ T-cells 1:1 or 1:5, 100 U/mL IL-2. As for the experimental part:
The following method is based on the procedure described by Fischer and Mackensen (2003) The flow cytometric PKH-26 assay for the determination of T-cell mediated cytotoxic activity. Methods 31: 135-142.
Specifically, 1×10^5 KG-1 cells, previously stained with PKH26 Red Fluorescent, were plated in a 24 well plate in 1 mL of complete media. These cells were then treated with different preparations: • (i) 20 μg/mL Alendronate (free Alendronate) • (ii) 20 μg/mL of liposomal Alendronate+Doxorubicin (L-ALD/DOX), • (iii) 20 μg/mL of folate targeted liposomal Alendronate+Doxorubicin (FR-L-ALD/DOX); • (iv) 13.3 μg/mL Doxil (the amount of doxorubicin correspondent to doxorubicin in L-ALD/DOX) • (v) Empty liposomes (stealth) • (vi) Control—no treatment.
Cells were incubated for 24 h at 37° C. with a treatment formulation according to the above groups. After 24 h, each group of treated KG-1 cells was co-cultured with γδ T_cells at a ratio of 1 tumor cell to 1 γδ T-cell and at 1 tumor cell to 5 γδ T-cells. In addition, 100 U/mL of IL-2 was also given to each treatment group. […]
After 4 h incubation, the cell cultures were stained with AnnexinV FITC (BD) in order to measure the percentage of apoptotic cells. The samples were analysed by flow cytometry and the principle is that tumor cell death is measured by analysing PKH26^+AnnexinV^+ cells.
For orientation: In flow cytometry, cells or beads pass a laser one at a time.

The test system of series [5] is M109R (doxorubicin resistant) carcinoma. It counts as in vivo, mouse. The conditions noted are these: M109R footpad tumor, i.v. 5 mg/kg doxorubicin or equivalent ALD, D7, D14, D21.
Method: The tumor model used here is the mouse M109R (doxorubicin resistant) carcinoma.
M109R tumor cells (10^6 cells/0.05 ml) were inoculated into the subcutaneous space of the mouse right hind footpad. Five to 7 days after inoculation, mice injected with M109R cells developed solid tumors as measured by the increased thickening of the footpad. Different liposomes were injected i.v. at dose levels of 5 mg/kg based on Doxorubicin content or an amount of Alendronate equivalent to that present in the co-encapsulated formulation at doxorubicin dose of 5 mg/kg. […] Treatment was administered on Day 7 (D7), Day 14 (D14) and Day 21 (D21). Kaplan-Meyer curves were based on an experimental endpoint of tumor size equal or greater than 4 mm.

Where only a bound is given, the exact number is not on record here.

With `COc1cccc2c1C(=O)c1c(O)c3c(c(O)c1C2=O)C[C@@](O)(C(=O)CO)C[C@@H]3O[C@H]1C[C@H](N)[C@H](O)[C@H](C)O1` [Free DOX, doxorubicin], the IC50 turned out to be 3120 nM in series [1], 40 nM in series [2] and 250 nM in series [3].
The molecule `NCCCC(O)(P(=O)(O)O)P(=O)(O)O` [Free ALD, 4-amino-1-hydroxybutylidene-1,1-bisphosphonic acid] yielded an IC50 in series [2] (Homo sapiens) above 20000 nM. For the same molecule, the “cytotoxicity (in words)” value in series [2] (stated for KB, N87 and IGROV cell lines together (FIGS. 3B-3D)) is recorded as “essentially no cytotoxicity”. Further, the “tumor cell killing / sensitivity to γδ T-cells (PKH26+AnnexinV+ cells)” value in series [4] is given as “enhances tumour sensitivity to γδ T-cells' cytotoxic action”. Moreover, the anti-tumor activity entry in series [5] is “no anti-tumor effect”.
